These results are taken from patent US10456451B2, “Protease-resistant mutants of stromal cell derived factor-1 in the repair of tissue damage” (Mesoblast International Sàrl, priority 2010, dated 2019).

One may read the EC50 as the midpoint of the concentration-response curve. High values mean a less potent agent, low ones a more potent agent.

Experiment [1] has as its target T1, MMP-2 (Homo sapiens, UniProt P08253).
T1 construct: purchased R&D Systems
T1 sequence (P08253 110-660): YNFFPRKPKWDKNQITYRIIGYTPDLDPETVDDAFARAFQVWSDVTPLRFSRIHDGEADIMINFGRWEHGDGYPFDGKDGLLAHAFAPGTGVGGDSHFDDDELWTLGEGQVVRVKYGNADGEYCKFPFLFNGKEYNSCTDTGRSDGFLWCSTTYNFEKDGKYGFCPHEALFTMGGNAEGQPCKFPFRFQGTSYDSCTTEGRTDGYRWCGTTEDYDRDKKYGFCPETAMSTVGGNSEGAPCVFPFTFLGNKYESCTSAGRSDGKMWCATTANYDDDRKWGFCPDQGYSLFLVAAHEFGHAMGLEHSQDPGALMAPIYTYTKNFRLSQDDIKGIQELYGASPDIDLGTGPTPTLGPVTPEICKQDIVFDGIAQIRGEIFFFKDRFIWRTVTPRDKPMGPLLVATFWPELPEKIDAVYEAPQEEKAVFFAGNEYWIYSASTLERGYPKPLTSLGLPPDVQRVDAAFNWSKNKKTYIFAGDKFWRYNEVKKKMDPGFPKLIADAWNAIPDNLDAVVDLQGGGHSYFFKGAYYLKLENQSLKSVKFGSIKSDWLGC
The experiment in a line: MMP-2 cleavage of Sumo fusion proteins, SDS-PAGE. It is filed as biochemical. As for the experimental part: Human recombinant MMP-2 (R&D Systems) was activated for 1 hour with 4-aminophenylmercuric acetate (APMA, 1 mM) at 37° C. 4 μg of Sumo-SSDF-1-RAD or Sumo-SSDF-1(S4V)-RAD was incubated for 1 hour to 48 hours at 21° C. with 50 ng of activated MMP-2 in TCNB buffer (50 mM Tris, pH 7.5, 10 mM CaCl2, 150 mM NaCl, 0.05% Brij-35). Sample loading buffer (Invitrogen) and 2-mercaptoethanol (0.5 M, final concentration) were added, and samples were boiled for 5 minutes and run on a 10% Bis-Tris gel. Proteins used for this experiment were obtained after cation-exchange chromatography, but were neither cleaved by Sumo-protease nor purified by RPC-HPLC.

In experiment [2] the target is T2, CXCR4 (Homo sapiens, UniProt P61073). The experiment is described as follows: CXCR4 β-arrestin recruitment assay (PathHunter). It is filed as cell-based. As for the experimental part:
(§1) PathHunter β-arrestin assays were performed following the instructions of the manufacturer (DiscoveRx). Briefly, PathHunter cell lines stably expressing both a β-arrestin-Enzyme Acceptor of β-galactosidase fusion and one of the chemokine receptors fused with the ProLink donor peptide of […] were employed. Upon CXCR stimulation, β-arrestin is recruited to the receptor for desensitization, bringing the two fragments (the Enzyme Acceptor and the ProLink) of β-galactosidase together. This generates an active β-galactosidase enzyme that can convert a substrate to a chemiluminescent product. Cells were seeded at a density of 5000 cells/well in a 384-well plate and were allowed to adhere overnight. […] After incubation, chemiluminescent signal was generated through addition of 12.5 μl (50% v/v) of PathHunter Detection reagent cocktail (DiscoveRx) followed by a 1-hour incubation at room temperature. Microplates were read with a PerkinElmer ViewLux instrument.
A general note: Recruitment of arrestin is a read-out of receptor activation apart from second messengers.

Experiment [3] has as its target CXCR7 (Homo sapiens, UniProt P25106). The experiment is described as follows: CXCR7 β-arrestin recruitment assay (PathHunter). It is filed as cell-based. On the procedure: as §1
Experiment [4] has as its target T2, CXCR4. The experiment in a line: CXCR4 cAMP receptor activation assay (CHO-K1 cells expressing CXCR4). The conditions noted are these: decrease in cAMP by Gαi activation, forskolin at EC80. The experiment is classed as cell-based. On the set-up: host or cells: CHO-K1. As for the experimental part:
For the CXCR4 cAMP assay, CHO-K1 cells stably expressing the CXCR4 receptor (DiscoveRx, Fremont, Calif.) were seeded at a density of 10,000 cells/well in a 384-well plate and were allowed to recover overnight. A decrease in cAMP by CXCR4-induced Gαi activation was determined using the DiscoveRx HitHunter cAMP XS+assay following the manufacturer's protocol. […] Chemiluminescence was read with a PerkinElmer ViewLux instrument.

Experiment [5] concerns Jurkat T-lymphocytic cells. The experiment is described as follows: Jurkat T-lymphocyte migration (chemotaxis) assay. It is filed as cell-based. As for the experimental part:
Jurkat cells were labeled with Calcein-AM (1 μM) for 60 minutes at 37° C., washed twice and resuspended in RPMI without phenol red to a final density of 4,000,000 cells/ml. […] Cells were allowed to migrate for 3 hours, and cells in lower wells were washed once with PBS. Fluorescence in lower wells was measured at 485 nm excitation and 535 nm emission wavelengths with a Victor Wallace II plate reader. A standard curve was constructed for each experiment to normalize fluorescence to the number of cells.

In experiment [6] the test system is ischemic hindlimb blood flow. The experiment is described as follows: Hindlimb ischemia model, laser Doppler blood flow. The settings on record: without nanofibers. The experiment is classed as in vivo, C57BL/6 mice. On the procedure:
All animal protocols were approved by the institutional IACUC and performed in an AAALAC certified facility. Studies were performed blinded and randomized. Hindlimb ischemia was produced in male C57BL/6 mice (305 mice total), 8 to 12 weeks old (Jackson Laboratories and Charles River Laboratories). Mice were anesthetized with isoflurane (2-3% in 100% oxygen) and buprenorphin (0.05 mg/kg). Femoral artery was ligated and excised below the inguinal ligament and above the bifurcation of the popliteal artery. Protein and self-assembling peptide nanofibers were injected in the lower hindlimb after excision of the artery. Peptides were dissolved in isotonic sucrose (10%). Post-operative analgesia was provided with buprenorphin (0.05 mg/kg every 6 to 12 hours for 72 hours). The surgeon was blinded to the treatment groups in all studies performed. The first study included 35 animals total (5 animals per group), which received an intramuscular injection in the lower hindlimb with biotin-labeled nanofibers (biotin-RAD, 0.01% in 1% nanofibers hydrogel). Tissues were harvested at seven different time points and nanofibers were stained with Alexa fluor-labeled streptavidin. The second study included 40 animals (10 per group) with four groups: control without injection, nanofibers only, nanofibers+100 nM SSDF-1-RAD, and nanofibers+100 nM SSDF-1(S4V)-RAD. Laser Doppler blood flow measurements were performed with a Moor LDI2-IR (Moor Instruments) 2, 4, and 6 weeks after surgery. At each time point, five measurements (on average) per animal were made, and blood flow in the ischemic limb was normalized to blood flow in normal limb. The third study included 50 animals with four different dosages of SSDF-1(S4V)-RAD; all groups contained nanofibers. All laser Doppler measurements and histology quantifications were made by an operator blinded to the treatment groups.

T2 sequence (P61073 whole entry, the tested form may be a part): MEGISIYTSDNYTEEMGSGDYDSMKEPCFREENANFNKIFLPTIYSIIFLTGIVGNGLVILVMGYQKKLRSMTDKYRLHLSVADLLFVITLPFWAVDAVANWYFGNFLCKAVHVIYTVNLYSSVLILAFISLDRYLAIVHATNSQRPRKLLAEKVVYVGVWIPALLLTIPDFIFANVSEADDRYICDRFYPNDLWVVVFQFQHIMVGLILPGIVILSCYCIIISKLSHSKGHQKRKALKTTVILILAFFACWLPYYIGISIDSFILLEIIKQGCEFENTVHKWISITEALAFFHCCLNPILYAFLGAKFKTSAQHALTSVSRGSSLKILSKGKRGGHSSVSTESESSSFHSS
Chain of CXCR7 (P25106 whole entry): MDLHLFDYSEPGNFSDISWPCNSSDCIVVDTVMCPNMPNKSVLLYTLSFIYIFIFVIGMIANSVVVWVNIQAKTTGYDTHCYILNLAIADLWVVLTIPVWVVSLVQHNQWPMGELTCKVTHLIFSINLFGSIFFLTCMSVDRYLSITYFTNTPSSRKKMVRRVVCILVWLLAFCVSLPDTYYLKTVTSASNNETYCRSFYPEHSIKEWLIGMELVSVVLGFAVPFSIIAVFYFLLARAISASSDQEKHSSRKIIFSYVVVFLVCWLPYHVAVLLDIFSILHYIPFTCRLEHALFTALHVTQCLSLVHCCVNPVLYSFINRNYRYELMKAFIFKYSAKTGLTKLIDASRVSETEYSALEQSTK

Regarding “SDF-1(S4V): SDF-1 with Ser→Val at position 4, SEQ ID NO:65”, the “rate of cleavage lower than SDF-1” value in experiment [1] is “at least 48 times”.
As for “SSDF-1 (S4V): SDF-1(S4V) (SEQ ID NO:65) with a serine residue added at the N-terminus”, the EC50 in experiment [2] was found to be 28 nM; in experiment [3], 37 nM; in experiment [4] it was 20 nM; in experiment [5] (Jurkat cells, 3 hours migration), 5.4 nM. Moreover, the “activity in Jurkat cell migration assay” value in experiment [5] (result in words) was “highest potency”. Also, the “average blood flow (ratio of ischemic to control limb)” value in experiment [6] (four weeks, 4 administrations (d0, d1, d3, d5) of 1 mg/kg) amounted to 27.1±2.5%. Further, the “blood flow differences between groups” value in experiment [6] (fourth study, 1 mg/kg daily IM for first 7 days) is given as “No significant differences in blood flow”; in experiment [6] (separate confirming study, same doses and schedule), “did not show significant differences between groups”; in experiment [6] (third study, 0.1, 0.3, 1 and 3 mg/kg at d0, d1, d3, d5), “No significant differences in blood flow”.
